{"source": "BindingDB's records for PubMed 34735766", "about": "(Shandong University, 2021)", "assay": "Inhibition of Influenza A virus H1N1 Neuraminidase"}
{"molecule": "CCC(CC)O[C@@H]1C=C(C(=O)O)C[C@H](NCc2ccc(Sc3ccccc3)cc2)[C@H]1NC(C)=O", "values": [{"measurement": "IC50", "result": 5.6, "unit": "nM"}]}
